Values of other authors as cited in patent US11717498B2, “Methods of treatment using amphetamine controlled release, prodrug, and abuse deterrent dosage forms” (CHEMAPOTHECA, LLC, priority 2013, dated 2023).

Settings: l-form versus d-form

## CC(C)NC[C@H](O)COc1cccc2ccccc12 [l-form of propranolol, propranolol]
  potency relative to the d-form: about 100 times
